Assay [1] deals with Fibroblast growth factor receptor 4 (Homo sapiens) (UniProt P22455). As to the kind of experiment: Residual activity of FGFR4 at 1 uM by microplate scintillation counting.
Assay [2] concerns the target Tyrosine-protein kinase Fyn (Homo sapiens) (UniProt P06241). As to the kind of experiment: Residual activity of FYN at 0.1 uM by microplate scintillation counting.
Assay [3] deals with T1, G protein-coupled receptor kinase 3 (Homo sapiens) (UniProt P35626).
T1 sequence (whole entry): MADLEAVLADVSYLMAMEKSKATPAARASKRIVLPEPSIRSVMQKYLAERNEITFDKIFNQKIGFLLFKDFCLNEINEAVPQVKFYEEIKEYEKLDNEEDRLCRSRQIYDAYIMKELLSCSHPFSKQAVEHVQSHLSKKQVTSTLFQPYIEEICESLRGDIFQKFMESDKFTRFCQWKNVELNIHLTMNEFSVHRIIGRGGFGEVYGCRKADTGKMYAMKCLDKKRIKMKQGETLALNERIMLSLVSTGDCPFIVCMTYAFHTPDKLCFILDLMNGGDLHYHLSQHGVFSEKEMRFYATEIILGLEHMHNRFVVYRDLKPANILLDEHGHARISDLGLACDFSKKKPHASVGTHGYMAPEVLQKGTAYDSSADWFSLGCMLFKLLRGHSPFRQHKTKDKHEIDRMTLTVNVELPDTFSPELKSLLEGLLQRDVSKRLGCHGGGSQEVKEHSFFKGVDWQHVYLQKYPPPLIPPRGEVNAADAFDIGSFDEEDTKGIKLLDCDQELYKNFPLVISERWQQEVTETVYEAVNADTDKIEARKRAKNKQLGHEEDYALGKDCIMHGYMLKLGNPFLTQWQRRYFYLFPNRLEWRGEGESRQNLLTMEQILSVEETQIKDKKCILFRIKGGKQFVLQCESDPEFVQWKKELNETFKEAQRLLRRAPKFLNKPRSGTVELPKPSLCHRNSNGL
Nature of the assay: Residual activity of GRK3 at 0.1 uM by microplate scintillation counting.

The target in assay [4] is Mast/stem cell growth factor receptor Kit (Homo sapiens) (UniProt P10721). As to the kind of experiment: Residual activity of wild type KIT at 0.1 uM by microplate scintillation counting.
Sequence of Mast/stem cell growth factor receptor Kit (Homo sapiens) (P10721 whole entry): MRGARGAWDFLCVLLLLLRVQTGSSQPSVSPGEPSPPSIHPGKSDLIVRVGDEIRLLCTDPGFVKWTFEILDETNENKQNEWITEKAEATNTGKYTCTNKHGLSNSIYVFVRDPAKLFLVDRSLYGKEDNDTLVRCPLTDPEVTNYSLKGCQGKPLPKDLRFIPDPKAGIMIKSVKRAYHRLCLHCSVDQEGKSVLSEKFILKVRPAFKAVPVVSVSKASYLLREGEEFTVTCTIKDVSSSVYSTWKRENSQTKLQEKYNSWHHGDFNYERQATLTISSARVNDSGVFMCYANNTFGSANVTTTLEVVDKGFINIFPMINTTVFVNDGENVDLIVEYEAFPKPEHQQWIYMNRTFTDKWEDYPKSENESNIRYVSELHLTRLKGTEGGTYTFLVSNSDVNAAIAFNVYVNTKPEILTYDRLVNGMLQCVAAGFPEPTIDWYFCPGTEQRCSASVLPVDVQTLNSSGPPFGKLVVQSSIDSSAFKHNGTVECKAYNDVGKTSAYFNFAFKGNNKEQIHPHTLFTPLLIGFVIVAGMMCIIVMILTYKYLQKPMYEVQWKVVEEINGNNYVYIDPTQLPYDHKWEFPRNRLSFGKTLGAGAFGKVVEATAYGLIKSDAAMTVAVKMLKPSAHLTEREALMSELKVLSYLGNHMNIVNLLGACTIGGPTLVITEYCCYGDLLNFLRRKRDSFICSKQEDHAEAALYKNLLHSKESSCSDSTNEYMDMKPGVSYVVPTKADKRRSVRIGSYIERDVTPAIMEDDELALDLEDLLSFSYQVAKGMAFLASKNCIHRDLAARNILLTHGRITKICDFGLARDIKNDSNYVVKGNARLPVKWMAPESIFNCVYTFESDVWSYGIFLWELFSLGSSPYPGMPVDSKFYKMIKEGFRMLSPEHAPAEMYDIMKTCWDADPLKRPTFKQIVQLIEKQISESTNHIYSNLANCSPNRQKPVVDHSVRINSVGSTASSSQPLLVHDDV
In assay [5] the target is Leukocyte tyrosine kinase receptor (Homo sapiens) (UniProt P29376). Nature of the assay: Residual activity of LTK at 1 uM by microplate scintillation counting.
Assay [6] addresses T2, Serine/threonine-protein kinase D2 (Homo sapiens) (UniProt Q9BZL6).
T2 sequence (whole entry): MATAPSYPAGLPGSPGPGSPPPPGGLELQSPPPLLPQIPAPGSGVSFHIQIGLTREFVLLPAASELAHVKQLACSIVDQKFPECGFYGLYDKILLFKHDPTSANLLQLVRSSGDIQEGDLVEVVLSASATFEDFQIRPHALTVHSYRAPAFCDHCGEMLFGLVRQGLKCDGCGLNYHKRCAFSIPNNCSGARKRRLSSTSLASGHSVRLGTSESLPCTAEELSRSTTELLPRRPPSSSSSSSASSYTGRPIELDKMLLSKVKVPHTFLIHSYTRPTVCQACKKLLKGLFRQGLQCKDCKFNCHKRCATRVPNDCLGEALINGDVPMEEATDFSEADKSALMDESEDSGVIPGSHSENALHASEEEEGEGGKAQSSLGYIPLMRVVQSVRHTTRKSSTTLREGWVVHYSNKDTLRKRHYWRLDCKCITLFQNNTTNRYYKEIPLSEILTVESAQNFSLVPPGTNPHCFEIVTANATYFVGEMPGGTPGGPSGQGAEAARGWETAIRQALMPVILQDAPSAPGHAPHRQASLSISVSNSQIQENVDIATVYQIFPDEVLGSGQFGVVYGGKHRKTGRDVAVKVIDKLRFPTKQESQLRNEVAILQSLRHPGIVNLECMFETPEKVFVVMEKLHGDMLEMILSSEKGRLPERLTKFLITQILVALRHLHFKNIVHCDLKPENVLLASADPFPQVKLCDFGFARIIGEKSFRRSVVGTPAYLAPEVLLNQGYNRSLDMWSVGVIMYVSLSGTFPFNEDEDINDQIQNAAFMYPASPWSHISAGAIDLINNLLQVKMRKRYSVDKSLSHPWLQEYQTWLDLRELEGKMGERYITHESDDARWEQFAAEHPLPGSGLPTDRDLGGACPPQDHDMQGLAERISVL
As to the kind of experiment: Residual activity of PRKD2 at 1 uM by microplate scintillation counting.

In assay [7] the target is Ephrin type-A receptor 5 (Homo sapiens) (UniProt P54756). As to the kind of experiment: Residual activity of EPHA5 at 10 uM by microplate scintillation counting.
The target in assay [8] is T3, Activin receptor type-1B (Homo sapiens) (UniProt P36896).
T3 sequence (whole entry): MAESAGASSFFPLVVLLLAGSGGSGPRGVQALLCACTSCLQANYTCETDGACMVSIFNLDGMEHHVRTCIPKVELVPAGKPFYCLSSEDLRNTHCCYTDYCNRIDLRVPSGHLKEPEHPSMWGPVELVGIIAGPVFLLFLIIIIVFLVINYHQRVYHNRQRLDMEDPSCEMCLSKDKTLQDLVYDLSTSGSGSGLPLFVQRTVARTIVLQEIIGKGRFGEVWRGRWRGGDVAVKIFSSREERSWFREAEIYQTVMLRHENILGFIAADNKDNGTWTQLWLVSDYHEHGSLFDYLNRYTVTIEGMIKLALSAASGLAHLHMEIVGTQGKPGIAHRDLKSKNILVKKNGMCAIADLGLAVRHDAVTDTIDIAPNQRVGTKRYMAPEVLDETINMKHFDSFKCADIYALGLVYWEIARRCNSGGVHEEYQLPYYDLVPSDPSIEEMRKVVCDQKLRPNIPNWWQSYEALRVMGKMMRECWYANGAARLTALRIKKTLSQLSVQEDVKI
As to the kind of experiment: Residual activity of ACVR1B at 10 uM by microplate scintillation counting.

The target of assay [9] is G protein-coupled receptor kinase 4 (Homo sapiens) (UniProt P32298). As to the kind of experiment: Residual activity of GRK4 at 10 uM by microplate scintillation counting.
Sequence of G protein-coupled receptor kinase 4 (Homo sapiens) (P32298 whole entry, looked up): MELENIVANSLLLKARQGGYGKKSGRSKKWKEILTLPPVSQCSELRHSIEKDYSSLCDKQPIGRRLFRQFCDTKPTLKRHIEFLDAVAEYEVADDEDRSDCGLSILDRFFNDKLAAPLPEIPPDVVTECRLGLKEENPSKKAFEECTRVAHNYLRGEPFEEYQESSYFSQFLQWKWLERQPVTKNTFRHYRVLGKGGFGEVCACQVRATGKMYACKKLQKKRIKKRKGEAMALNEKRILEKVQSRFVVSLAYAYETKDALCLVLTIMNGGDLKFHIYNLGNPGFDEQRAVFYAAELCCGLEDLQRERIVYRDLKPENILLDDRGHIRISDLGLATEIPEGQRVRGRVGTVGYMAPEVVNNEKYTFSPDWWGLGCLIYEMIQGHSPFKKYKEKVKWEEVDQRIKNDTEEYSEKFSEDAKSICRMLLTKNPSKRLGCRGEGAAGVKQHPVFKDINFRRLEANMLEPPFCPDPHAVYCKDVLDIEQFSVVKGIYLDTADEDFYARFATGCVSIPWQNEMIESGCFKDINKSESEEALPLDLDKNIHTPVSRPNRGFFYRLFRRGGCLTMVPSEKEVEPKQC
The target in assay [10] is Vascular endothelial growth factor receptor 3 (Homo sapiens, UniProt P35916). Nature of the assay: Residual activity of VEGFR3 at 0.1 uM by microplate scintillation counting.
Sequence of Vascular endothelial growth factor receptor 3 (P35916 whole entry): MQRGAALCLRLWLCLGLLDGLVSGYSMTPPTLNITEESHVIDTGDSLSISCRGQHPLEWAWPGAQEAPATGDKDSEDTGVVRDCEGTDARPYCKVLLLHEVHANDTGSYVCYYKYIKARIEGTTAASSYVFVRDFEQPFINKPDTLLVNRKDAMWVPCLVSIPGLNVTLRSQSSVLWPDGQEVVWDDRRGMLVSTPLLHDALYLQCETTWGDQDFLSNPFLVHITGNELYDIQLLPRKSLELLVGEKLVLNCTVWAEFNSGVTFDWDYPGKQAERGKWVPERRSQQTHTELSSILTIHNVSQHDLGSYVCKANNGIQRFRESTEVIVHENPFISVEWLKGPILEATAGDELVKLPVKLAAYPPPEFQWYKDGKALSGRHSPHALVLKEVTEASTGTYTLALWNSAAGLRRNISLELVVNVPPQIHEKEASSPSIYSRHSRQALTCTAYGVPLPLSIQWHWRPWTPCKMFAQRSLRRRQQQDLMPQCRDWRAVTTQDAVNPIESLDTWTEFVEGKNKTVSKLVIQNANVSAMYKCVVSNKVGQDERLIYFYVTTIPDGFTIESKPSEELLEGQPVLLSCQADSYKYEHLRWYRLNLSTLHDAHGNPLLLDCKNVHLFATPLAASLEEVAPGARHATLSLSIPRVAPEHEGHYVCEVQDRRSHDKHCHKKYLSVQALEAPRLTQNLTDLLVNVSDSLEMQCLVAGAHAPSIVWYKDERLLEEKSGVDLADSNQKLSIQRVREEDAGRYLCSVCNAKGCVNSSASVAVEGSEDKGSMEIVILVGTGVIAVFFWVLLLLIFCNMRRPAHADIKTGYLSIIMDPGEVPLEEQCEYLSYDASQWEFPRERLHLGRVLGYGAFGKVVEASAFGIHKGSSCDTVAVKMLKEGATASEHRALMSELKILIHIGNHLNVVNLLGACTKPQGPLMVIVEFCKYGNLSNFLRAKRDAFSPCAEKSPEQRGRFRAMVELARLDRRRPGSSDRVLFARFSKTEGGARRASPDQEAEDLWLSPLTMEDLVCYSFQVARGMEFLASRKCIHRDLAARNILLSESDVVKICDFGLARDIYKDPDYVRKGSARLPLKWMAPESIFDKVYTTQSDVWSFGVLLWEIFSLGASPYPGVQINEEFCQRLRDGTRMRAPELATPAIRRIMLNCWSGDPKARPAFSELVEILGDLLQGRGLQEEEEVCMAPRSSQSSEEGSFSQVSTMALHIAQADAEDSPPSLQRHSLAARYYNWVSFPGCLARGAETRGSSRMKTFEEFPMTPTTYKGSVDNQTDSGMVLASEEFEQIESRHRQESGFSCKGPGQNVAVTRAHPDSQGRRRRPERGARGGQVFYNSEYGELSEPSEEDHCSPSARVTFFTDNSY
For assay [11], the target named is 5'-AMP-activated protein kinase catalytic subunit alpha-1 (Homo sapiens) (UniProt Q13131). Nature of the assay: Residual activity of AMPK-alpha1 fl at 1 uM by microplate scintillation counting.
The target in assay [12] is Tyrosine-protein kinase Blk (Homo sapiens) (UniProt P51451). As to the kind of experiment: Residual activity of BLK at 1 uM by microplate scintillation counting.
Assay [13] concerns the target Protein kinase C beta type (Homo sapiens) (UniProt P05771). Nature of the assay: Residual activity of PKCbeta1 at 10 uM by microplate scintillation counting.
Assay [14] addresses CDK3/cyclin E (Homo sapiens) (UniProt P24864+O96020+Q00526). As to the kind of experiment: Residual activity of CDK3/Cyclin E at 1 uM by microplate scintillation counting. Format: protein-complex assay.
In assay [15] the target is Serine/threonine-protein kinase PAK 3 (Homo sapiens) (UniProt O75914). As to the kind of experiment: Residual activity of PAK3 at 0.1 uM by microplate scintillation counting.

Sequence of CDK3/cyclin E (Homo sapiens) (O96020 whole entry, looked up): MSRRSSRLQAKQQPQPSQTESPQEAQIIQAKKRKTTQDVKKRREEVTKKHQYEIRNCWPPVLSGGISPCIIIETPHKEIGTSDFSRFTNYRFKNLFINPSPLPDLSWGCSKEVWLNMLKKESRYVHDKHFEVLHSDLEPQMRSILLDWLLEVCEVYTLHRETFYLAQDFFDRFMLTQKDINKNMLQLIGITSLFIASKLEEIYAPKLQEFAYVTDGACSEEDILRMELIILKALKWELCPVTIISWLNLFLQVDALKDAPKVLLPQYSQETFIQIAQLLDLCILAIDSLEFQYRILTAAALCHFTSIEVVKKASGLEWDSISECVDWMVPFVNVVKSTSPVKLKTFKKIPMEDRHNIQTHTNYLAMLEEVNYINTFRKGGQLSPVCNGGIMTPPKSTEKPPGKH
Sequence of CDK3/cyclin E (Homo sapiens) (P24864 whole entry, looked up): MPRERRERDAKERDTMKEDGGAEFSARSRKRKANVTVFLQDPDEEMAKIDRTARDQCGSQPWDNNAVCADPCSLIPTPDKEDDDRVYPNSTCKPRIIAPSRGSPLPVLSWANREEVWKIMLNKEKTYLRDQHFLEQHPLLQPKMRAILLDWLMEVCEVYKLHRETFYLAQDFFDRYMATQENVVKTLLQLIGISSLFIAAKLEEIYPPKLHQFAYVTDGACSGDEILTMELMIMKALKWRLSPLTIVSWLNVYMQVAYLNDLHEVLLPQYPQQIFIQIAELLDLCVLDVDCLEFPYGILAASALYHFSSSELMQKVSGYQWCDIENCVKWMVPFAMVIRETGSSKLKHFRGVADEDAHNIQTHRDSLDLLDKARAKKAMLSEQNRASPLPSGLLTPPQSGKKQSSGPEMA
Sequence of CDK3/cyclin E (Homo sapiens) (Q00526 whole entry, looked up): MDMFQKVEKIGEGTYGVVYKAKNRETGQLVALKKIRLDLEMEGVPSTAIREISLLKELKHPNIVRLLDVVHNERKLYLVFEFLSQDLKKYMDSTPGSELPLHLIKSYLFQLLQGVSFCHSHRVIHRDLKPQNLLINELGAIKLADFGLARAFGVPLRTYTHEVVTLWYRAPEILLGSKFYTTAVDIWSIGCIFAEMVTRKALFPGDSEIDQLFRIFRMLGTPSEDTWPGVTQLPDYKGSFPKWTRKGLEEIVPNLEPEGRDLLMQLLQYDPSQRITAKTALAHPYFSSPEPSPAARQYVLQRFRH
Sequence of Protein kinase C beta type (Homo sapiens) (P05771 2-671 limits assumed): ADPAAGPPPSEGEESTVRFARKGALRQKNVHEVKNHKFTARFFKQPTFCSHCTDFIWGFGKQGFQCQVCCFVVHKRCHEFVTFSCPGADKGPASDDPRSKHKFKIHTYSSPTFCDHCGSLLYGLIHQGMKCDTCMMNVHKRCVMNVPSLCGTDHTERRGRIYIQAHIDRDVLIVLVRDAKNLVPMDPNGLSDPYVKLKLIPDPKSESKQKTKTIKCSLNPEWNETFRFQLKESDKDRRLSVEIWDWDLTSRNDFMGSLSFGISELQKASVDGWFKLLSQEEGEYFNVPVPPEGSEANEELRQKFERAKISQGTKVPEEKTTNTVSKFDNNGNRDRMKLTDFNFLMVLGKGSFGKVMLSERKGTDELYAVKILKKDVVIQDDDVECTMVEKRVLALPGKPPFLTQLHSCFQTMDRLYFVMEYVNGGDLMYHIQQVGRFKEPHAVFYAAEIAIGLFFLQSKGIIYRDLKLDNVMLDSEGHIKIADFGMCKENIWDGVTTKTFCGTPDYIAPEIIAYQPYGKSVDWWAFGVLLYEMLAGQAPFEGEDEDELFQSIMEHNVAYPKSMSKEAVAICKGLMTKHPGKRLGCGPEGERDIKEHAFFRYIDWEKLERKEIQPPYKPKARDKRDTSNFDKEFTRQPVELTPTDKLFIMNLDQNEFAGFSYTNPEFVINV

Regarding `COc1cc2c(Oc3ccc(-c4nc5ccccc5s4)cc3F)ncnc2cc1OCCCN1CCN(C)CC1`, the residual activity in assay [1] turned out to be 130%; in [2] it was 98%; in assay [3] it was 95%; in assay [4], 96%; in assay [5] it was 127%; in assay [6], 90%. Moreover, the residual activity was 162% in assay [7]; 109% in [8]; 154% in assay [9]; 64% in assay [10]; 77% in assay [11]; 58% in [12]. In addition, the residual activity in assay [13] was 57%; in assay [14], 79%; in [15] it was 97%.

On to `COc1cc2c(Oc3ccc(-c4nc5ccccc5s4)cc3)ncnc2cc1OCCCN1CCN(C)CC1`, for which the residual activity was found to be 121% in assay [1]; 101% in [2]; 94% in assay [3]; 96% in [4]; 123% in assay [5]; 82% in assay [6]. The residual activity in assay [7] was found to be 302%; in assay [8], 93%; in assay [9] it was 171%; in assay [10] it was 60%; in assay [11], 76%; in assay [12], 63%. Further, the residual activity in [13] came to 81%; in [14], 85%; in [15], 95%.

In the case of `COc1cc2c(Oc3ccc(-c4nc5ccccc5s4)cc3)ncnc2cc1OCCCN1CCCC1`, the residual activity in [1] is 137%; in [2], 105%; in assay [3], 86%; in assay [4], 101%; in assay [5], 143%; in assay [6], 94%. For the same compound, the residual activity in assay [7] came to 236%; in assay [8] it was 104%; in assay [9], 159%; in assay [10], 57%; in [11], 91%; in [12] it was 64%. In addition, the residual activity in assay [13] was found to be 73%; in assay [14], 89%; in assay [15] it was 95%.

For the origin of these results see ChEMBL document CHEMBL1152560, “Substituted 2-arylbenzothiazoles as kinase inhibitors: hit-to-lead optimization” (Bioorg Med Chem, 2009).
